Measurements: patent US11040028B2, “Penicinotam derivative, preparation method and use thereof” (OCEAN UNIVERSITY OF CHINA, priority 2017, dated 2021)

Legend:
Assay type in all cases: cell-based
BHK-21 cells = assay: Anti-fibrosis activity test: inhibition of BHK-21 cell proliferation (CCK-8); details: Mesocricetus auratus, BHK-21, 48 h, CCK-8, 48 hours after administration
Method in brief: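 Proliferation inhibition was read as CCK-8 absorbance at 450 nm (2-hour development) relative to untreated blank, with IC50 fitted from the curve. Before that, adhered cells (2×10^4 cells/mL, 24 hours) had 48 hours' treatment at several concentrations, in triplicate, at 37° C/5% CO2; pirfenidone was the reference.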

[1] = test system: human fibrosarcoma cells HT-1080; assay: Anti-fibrosis activity test: inhibition of proliferation of human fibrosarcoma cells HT-1080 (CCK-8); details: Homo sapiens, HT-1080, 48 h, human fibrosarcoma cells HT-1080, CCK-8, 48 hours
Method in brief: (§1)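 IC50 values derive from CCK-8 absorbance (450 nm, 2 h reagent incubation) measured after a 48 h exposure to test compounds. Before dosing, cells plated at 2×10^4 cells/mL had attached for 24 h under 5% CO2 at 37° C; triplicate wells per concentration.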

[2] = test system: mouse macrophages (RAW264.7); assay: Lipopolysaccharide-induced NO secretion in macrophages (Griess); details: Mus musculus, RAW264.7, 24 h, RAW264.7, LPS 1 μg/ml, a/b isomers given as first/second symbol, read-out: IC50 (μM), inhibition of lipopolysaccharide-induced NO secretion in macrophages
Method in brief: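 Percent inhibition of NO release was measured by Griess absorbance at 548 nm in supernatants. Cells were mouse RAW264.7 macrophages in 10% FBS DMEM, treated with graded compound concentrations and activated by LPS (1 μg/ml) for 24 h.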

[3] = test system: human hepatic stellate cells LX-2; assay: Anti-fibrosis activity test: inhibition of proliferation of human hepatic stellate cells LX-2 (CCK-8); details: Homo sapiens, 48 h, human hepatic stellate cells LX-2, CCK-8, 48 hours
Method in brief: as §1

[4] = test system: human dermal fibroblasts CCC-ESF-1; assay: Anti-fibrosis activity test: inhibition of proliferation of human dermal fibroblasts CCC-ESF-1 (CCK-8); details: Fibroblast; human dermal fibroblasts CCC-ESF-1, CCK-8, 48 hours
Method in brief: as §1

[5] = test system: cardiac fibroblast RAT-iCell-C002; assay: Anti-fibrosis activity test: inhibition of proliferation of cardiac fibroblast RAT-iCell-C002 (CCK-8); details: Cardiac fibroblast, 48 h, cardiac fibroblast RAT-iCell-C002, CCK-8, 48 hours
Method in brief: as §1

[6] = test system: human lung fibroblasts HFL1; assay: Anti-fibrosis activity test: inhibition of proliferation of human lung fibroblasts HFL1 (CCK-8); details: Homo sapiens, HFL1, 48 h, human lung fibroblasts HFL1, CCK-8, 48 hours
Method in brief: as §1

[7] = test system: human embryonic lung fibroblast IMR-90; assay: Anti-fibrosis activity test: inhibition of proliferation of human embryonic lung fibroblast IMR-90 (CCK-8); details: human embryonic lung fibroblast IMR-90, CCK-8, 48 hours
Method in brief: as §1

NF-κB = assay: Immunological activity test: inhibition of NF-κB activity; details: initial concentration of 30 μM; a/b isomers given as first/second symbol; read-out: IC50 (μM), inhibitory activity against NF-κB
Method in brief: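 Initial screen at 30 μM; parthenolide positive control. IC50s derived from follow-up analysis.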

| Structure (SMILES) | IC50 [1] | IC50 [2] | IC50 (NF-κB) | IC50 (BHK-21 cells) | IC50 [3] | IC50 [4] | IC50 [5] | IC50 [6] | IC50 [7] |
| --- | --- | --- | --- | --- | --- | --- | --- | --- | --- |
| O=C1c2c([nH]c3cc(F)ccc3c2=O)-c2cccn21 [Compound 488a, 6-Fluoro-9H-pyrrolizino[1,2-b]quinoline-9,10(4H)-dione] | 0.05 to 5 mM | 10 to 50 µM | 1 to 10 µM | 0.05 to 5 mM | < 0.05 mM | 0.05 to 5 mM | 0.05 to 5 mM | 0.05 to 5 mM | 0.05 to 5 mM |
| O=C1c2c(nc3cc(F)ccc3c2O)-c2cccn21 [Compound 488b, 6-fluoro-9-hydroxy-10H-pyrrolizino[1,2-b]quinolin-10-one] | 0.05 to 5 mM | 1 to 10 µM | 10 to 50 µM | 0.05 to 5 mM | 0.05 to 5 mM | 0.05 to 5 mM | 0.05 to 5 mM | 0.05 to 5 mM | 0.05 to 5 mM |
| O=C1c2c(n(Cc3ccc(Cl)cc3)c3cc(F)ccc3c2=O)-c2cccn21 [Compound 496a, 4-(4-Chlorobenzyl)-6-fluoro-9H-pyrrolizino[1,2-b]quinoline-9,10(4H)-dione] | 0.05 to 5 mM | 10 to 50 µM | 10 to 50 µM | 0.05 to 5 mM | 0.05 to 5 mM | 0.05 to 5 mM | 0.05 to 5 mM | 0.05 to 5 mM | 0.05 to 5 mM |
| O=C1c2c(nc3cc(F)ccc3c2OCc2ccc(Cl)cc2)-c2cccn21 [Compound 496b, 9-((4-chlorobenzyl)oxy)-6-fluoro-10H-pyrrolizino[1,2-b]quinolin-10-one] | 0.05 to 5 mM | 1 to 10 µM | 10 to 50 µM | 0.05 to 5 mM | 0.05 to 5 mM | 0.05 to 5 mM | 0.05 to 5 mM | 0.05 to 5 mM | 0.05 to 5 mM |

More lines, main results first:

| IC50 [1] | IC50 [2] | IC50 (NF-κB) | Structure (SMILES) | IC50 (BHK-21 cells) | IC50 [3] | IC50 [4] | IC50 [5] | IC50 [6] | IC50 [7] |
| --- | --- | --- | --- | --- | --- | --- | --- | --- | --- |
| 0.05 to 5 mM | 1 to 10 µM | 10 to 50 µM | O=C1c2c(n(Cc3ccc(Cl)cc3)c3cccc(Cl)c3c2=O)-c2cccn21 [Compound 477a, 8-Chloro-4-(4-chlorobenzyl)-9H-pyrrolizino[1,2-b]quinoline-9,10(4H)-dione] | 0.05 to 5 mM | 0.05 to 5 mM | 0.05 to 5 mM | 0.05 to 5 mM | 0.05 to 5 mM | 0.05 to 5 mM |
| 0.05 to 5 mM | 1 to 10 µM | 10 to 50 µM | O=C1c2c(nc3cccc(Cl)c3c2OCc2ccc(Cl)cc2)-c2cccn21 [Compound 477b, 8-chloro-9-((4-chlorobenzyl)oxy)-10H-pyrrolizino[1,2-b]quinolin-10-one] | 0.05 to 5 mM | 0.05 to 5 mM | 0.05 to 5 mM | 0.05 to 5 mM | 0.05 to 5 mM | 0.05 to 5 mM |
| 0.05 to 5 mM | 0.1 to 1 µM | 10 to 50 µM | O=C1c2c(n(Cc3cccc(Cl)c3)c3cccc(Cl)c3c2=O)-c2cccn21 [Compound 478a, 8-Chloro-4-(3-chlorobenzyl)-9H-pyrrolizino[1,2-b]quinoline-9,10(4H)-dione] | 0.05 to 5 mM | 0.05 to 5 mM | 0.05 to 5 mM | 0.05 to 5 mM | 0.05 to 5 mM | 0.05 to 5 mM |
| 0.05 to 5 mM | 1 to 10 µM | 10 to 50 µM | O=C1c2c(nc3cccc(Cl)c3c2OCc2cccc(Cl)c2)-c2cccn21 [Compound 478b, 8-chloro-9-((3-chlorobenzyl)oxy)-10H-pyrrolizino[1,2-b]quinolin-10-one] | 0.05 to 5 mM | 0.05 to 5 mM | 0.05 to 5 mM | 0.05 to 5 mM | 0.05 to 5 mM | 0.05 to 5 mM |
| 0.05 to 5 mM | 10 to 50 µM | 10 to 50 µM | O=C1c2c([nH]c3cccc(C(F)(F)F)c3c2=O)-c2cccn21 [Compound 479a, 8-(Trifluoromethyl)-9H-pyrrolizino[1,2-b]quinoline-9,10(4H)-dione] | < 0.05 mM | 0.05 to 5 mM | 0.05 to 5 mM | 0.05 to 5 mM | 0.05 to 5 mM | 0.05 to 5 mM |
| 0.05 to 5 mM | 1 to 10 µM | 1 to 10 µM | O=C1c2c(nc3cccc(C(F)(F)F)c3c2O)-c2cccn21 [Compound 479b, 9-hydroxy-8-(trifluoromethyl)-10H-pyrrolizino[1,2-b]quinolin-10-one] | 0.05 to 5 mM | 0.05 to 5 mM | 0.05 to 5 mM | 0.05 to 5 mM | 0.05 to 5 mM | 0.05 to 5 mM |
